Patent publication US12466839B2, “Allosteric AKT inhibitors for use in the treatment of Hereditary Hemorrhagic Telangiectasia” (VADERIS THERAPEUTICS AG, priority 2020, dated 2025)

Tests used:
HCN4 = HCN4 (Homo sapiens, UniProt Q9Y3Q4); test: Cardiac ion channel profile; format: cell-based
SST4 = biological target: T1, SST4 (Homo sapiens, UniProt P31391); test: Millipore Drug Discovery Safety and Liability Panel; format: cell-based
T1 construct: Millipore

NMU1 = biological target: T2, NMU1 (Homo sapiens, UniProt Q9HB89); test: as above; format: cell-based
T2 construct: Millipore
T2 sequence (Q9HB89 whole entry): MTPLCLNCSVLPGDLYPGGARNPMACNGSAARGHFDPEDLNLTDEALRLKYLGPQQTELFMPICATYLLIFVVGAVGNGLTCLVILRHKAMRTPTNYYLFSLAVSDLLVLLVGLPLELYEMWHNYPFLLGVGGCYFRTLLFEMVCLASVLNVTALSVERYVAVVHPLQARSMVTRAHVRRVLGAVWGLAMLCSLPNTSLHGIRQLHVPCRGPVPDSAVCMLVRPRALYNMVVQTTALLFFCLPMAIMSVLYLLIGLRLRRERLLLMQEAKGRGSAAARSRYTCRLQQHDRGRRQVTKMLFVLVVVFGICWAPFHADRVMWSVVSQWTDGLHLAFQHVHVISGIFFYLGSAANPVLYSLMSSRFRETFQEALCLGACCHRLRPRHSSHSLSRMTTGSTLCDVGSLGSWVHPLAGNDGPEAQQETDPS

ADRB1 = biological target: T3, ADRB1 (Homo sapiens, UniProt P08588); test: as above; format: cell-based
T3 construct: purchased Millipore

ADRA1D (DELTA2-79) = biological target: T4, ADRA1D (DELTA2-79) (Homo sapiens, UniProt P25100); test: as above; format: cell-based
T4 construct: purchased Millipore
T4 sequence (P25100 with tags, fused parts or gaps limits assumed): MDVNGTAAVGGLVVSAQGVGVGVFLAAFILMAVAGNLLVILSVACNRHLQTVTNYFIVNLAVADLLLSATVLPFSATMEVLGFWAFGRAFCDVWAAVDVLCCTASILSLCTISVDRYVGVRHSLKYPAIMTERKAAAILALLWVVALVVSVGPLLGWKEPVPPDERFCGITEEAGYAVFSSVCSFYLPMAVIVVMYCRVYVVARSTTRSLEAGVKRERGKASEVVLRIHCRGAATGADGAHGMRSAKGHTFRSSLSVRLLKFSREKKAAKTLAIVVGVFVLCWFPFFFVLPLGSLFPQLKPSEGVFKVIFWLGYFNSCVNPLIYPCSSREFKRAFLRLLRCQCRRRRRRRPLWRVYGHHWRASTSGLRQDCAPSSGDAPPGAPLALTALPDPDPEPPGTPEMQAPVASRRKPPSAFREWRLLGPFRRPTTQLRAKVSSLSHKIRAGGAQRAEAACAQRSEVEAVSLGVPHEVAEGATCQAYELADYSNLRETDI

Kir2.1 = Kir2.1 (Homo sapiens, UniProt P63252); test: Cardiac ion channel profile; format: cell-based
ETB = biological target: T5, ETB (Homo sapiens, UniProt P24530); test: Millipore Drug Discovery Safety and Liability Panel; format: cell-based
T5 construct: purchased Millipore

H2 = biological target: T6, H2 (Homo sapiens, UniProt P25021); test: as above; format: cell-based
T6 construct: purchased Millipore

KChIP2 (Homo sapiens) = test: Cardiac ion channel profile; format: cell-based
CCK2 = biological target: T7, CCK2 (Homo sapiens, UniProt P32239); test: Millipore Drug Discovery Safety and Liability Panel; format: cell-based
T7 construct: purchased Millipore
T7 sequence (P32239 whole entry): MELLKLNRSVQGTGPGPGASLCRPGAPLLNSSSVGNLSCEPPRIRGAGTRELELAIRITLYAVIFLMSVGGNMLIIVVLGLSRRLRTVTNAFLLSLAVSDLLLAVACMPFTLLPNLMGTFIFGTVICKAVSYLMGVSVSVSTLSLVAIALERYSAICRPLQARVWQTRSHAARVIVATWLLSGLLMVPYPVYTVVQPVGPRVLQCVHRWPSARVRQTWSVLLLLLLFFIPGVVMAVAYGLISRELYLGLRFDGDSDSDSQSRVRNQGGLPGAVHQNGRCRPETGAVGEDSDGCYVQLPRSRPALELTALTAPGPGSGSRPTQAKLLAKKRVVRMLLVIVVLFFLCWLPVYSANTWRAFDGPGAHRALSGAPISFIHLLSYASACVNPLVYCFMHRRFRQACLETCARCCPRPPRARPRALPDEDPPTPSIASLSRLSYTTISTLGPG

BDKR2 = biological target: T8, BDKR2 (Homo sapiens, UniProt P30411); test: as above; format: cell-based
T8 construct: purchased Millipore

VPAC2 = biological target: T9, VPAC2 (Homo sapiens, UniProt P41587); test: as above; format: cell-based
T9 construct: Millipore
T9 sequence (P41587 24-438): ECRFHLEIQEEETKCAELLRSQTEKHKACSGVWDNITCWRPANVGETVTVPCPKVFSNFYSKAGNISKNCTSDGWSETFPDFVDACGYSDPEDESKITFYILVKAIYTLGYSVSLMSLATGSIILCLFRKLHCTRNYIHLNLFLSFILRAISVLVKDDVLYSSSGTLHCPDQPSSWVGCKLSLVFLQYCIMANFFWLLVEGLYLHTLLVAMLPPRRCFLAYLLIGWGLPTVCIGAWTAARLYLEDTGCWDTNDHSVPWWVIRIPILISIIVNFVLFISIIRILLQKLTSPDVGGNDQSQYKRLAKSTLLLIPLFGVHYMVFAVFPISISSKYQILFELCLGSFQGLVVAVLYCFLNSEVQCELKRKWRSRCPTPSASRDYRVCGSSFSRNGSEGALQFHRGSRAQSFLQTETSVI

GAL1 = biological target: T10, GAL1 (Homo sapiens, UniProt P47211); test: as above; format: cell-based
T10 construct: purchased Millipore
T10 sequence (P47211 whole entry): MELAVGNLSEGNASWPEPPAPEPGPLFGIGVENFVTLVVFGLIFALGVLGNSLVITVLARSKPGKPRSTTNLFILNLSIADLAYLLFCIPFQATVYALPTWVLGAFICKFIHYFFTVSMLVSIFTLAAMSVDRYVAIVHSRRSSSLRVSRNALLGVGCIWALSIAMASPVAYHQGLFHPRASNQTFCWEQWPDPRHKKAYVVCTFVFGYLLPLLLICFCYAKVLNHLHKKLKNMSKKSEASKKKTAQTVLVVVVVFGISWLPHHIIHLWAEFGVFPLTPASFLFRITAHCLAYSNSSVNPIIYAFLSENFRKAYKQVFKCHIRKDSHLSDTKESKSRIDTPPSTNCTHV

tumor xenograft = test: Tumor xenograft model; format: in vivo
OPRM1 = biological target: T11, OPRM1 (Homo sapiens, UniProt P35372); test: Millipore Drug Discovery Safety and Liability Panel; format: cell-based
T11 construct: Millipore

5-HT1A = biological target: T12, 5-HT1A (Homo sapiens, UniProt P08908); test: as above; format: cell-based
T12 construct: purchased Millipore
T12 sequence (P08908 whole entry, species assumed): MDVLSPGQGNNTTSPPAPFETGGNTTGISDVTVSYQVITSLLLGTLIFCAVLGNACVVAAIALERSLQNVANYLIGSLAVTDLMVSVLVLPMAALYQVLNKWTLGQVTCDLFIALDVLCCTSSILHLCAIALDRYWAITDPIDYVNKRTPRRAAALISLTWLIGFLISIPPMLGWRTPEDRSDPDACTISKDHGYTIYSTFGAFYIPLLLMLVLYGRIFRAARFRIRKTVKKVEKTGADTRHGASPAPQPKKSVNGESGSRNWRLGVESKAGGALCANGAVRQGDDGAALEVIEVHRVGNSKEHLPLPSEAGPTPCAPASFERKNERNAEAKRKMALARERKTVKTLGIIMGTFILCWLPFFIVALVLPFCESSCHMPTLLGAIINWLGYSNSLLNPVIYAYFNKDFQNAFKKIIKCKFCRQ

AKT3 = AKT3 (Homo sapiens, UniProt Q9Y243); test: Panel of 450 kinases; format: biochemical
OPRD1 = biological target: T13, OPRD1 (Homo sapiens, UniProt P41143); test: Millipore Drug Discovery Safety and Liability Panel; format: cell-based
T13 construct: Millipore

S1P3 = biological target: T14, S1P3 (Homo sapiens, UniProt Q99500); test: as above; format: cell-based
T14 construct: Millipore
T14 sequence (Q99500 whole entry, species assumed): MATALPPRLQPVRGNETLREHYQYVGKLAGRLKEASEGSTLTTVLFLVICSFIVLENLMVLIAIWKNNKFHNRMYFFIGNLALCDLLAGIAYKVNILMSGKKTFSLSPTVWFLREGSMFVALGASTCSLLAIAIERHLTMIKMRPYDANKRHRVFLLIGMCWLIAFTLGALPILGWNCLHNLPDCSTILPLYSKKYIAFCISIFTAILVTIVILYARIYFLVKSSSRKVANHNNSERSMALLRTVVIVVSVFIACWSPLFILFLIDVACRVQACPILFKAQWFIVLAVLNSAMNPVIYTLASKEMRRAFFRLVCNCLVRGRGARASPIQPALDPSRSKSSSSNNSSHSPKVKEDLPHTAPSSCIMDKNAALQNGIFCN

CRF1 = biological target: T15, CRF1 (Homo sapiens, UniProt P34998); test: as above; format: cell-based
T15 construct: purchased Millipore
T15 sequence (P34998 24-415): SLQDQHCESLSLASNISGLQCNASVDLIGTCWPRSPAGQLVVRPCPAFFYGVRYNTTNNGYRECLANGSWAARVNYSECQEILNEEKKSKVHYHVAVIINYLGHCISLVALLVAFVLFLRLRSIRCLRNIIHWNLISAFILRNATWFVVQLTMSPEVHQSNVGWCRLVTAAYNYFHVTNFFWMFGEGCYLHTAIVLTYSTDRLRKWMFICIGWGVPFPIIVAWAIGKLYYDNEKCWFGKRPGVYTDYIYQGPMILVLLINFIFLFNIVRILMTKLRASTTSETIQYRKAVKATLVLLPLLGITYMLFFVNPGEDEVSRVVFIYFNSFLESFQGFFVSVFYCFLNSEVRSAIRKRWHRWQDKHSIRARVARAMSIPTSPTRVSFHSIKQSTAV

AT1 = biological target: T16, AT1 (Homo sapiens, UniProt P30556); test: as above; format: cell-based
T16 construct: purchased Millipore
T16 sequence (P30556 whole entry): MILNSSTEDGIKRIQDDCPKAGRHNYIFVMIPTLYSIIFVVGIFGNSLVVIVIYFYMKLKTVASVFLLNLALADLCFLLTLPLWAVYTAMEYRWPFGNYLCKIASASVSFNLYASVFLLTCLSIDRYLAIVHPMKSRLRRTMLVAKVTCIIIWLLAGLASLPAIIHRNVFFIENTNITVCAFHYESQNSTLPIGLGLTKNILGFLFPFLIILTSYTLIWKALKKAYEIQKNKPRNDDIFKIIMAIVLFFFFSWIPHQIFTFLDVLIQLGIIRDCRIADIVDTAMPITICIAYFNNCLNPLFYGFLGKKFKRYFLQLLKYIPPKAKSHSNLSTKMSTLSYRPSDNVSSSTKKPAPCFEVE

FP = biological target: T17, FP (Homo sapiens, UniProt P43088); test: as above; format: cell-based
T17 construct: purchased Millipore
T17 sequence (P43088 whole entry): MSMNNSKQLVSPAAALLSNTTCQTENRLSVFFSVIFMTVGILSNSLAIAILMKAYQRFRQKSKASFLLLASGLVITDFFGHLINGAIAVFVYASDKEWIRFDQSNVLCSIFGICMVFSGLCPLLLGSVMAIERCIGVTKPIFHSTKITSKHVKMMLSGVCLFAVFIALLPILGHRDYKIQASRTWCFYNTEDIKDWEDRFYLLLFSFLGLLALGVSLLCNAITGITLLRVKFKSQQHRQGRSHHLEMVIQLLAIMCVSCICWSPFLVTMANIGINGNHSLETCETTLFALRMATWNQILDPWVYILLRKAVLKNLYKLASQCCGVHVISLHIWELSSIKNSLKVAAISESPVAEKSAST

LPA3 = biological target: T18, LPA3 (Homo sapiens, UniProt Q9UBY5); test: as above; format: cell-based
T18 construct: purchased Millipore
T18 sequence (Q9UBY5 whole entry, species assumed): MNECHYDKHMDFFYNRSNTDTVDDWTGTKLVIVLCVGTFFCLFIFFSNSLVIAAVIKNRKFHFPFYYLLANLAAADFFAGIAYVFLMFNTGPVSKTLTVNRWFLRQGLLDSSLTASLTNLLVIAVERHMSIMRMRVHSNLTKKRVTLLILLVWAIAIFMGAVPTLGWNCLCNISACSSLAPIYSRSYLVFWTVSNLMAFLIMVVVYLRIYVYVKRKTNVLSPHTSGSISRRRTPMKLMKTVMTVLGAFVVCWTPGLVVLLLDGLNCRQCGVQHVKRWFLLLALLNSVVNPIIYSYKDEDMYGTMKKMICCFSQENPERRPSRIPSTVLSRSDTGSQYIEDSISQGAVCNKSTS

TP = biological target: T19, TP (Homo sapiens, UniProt P21731); test: as above; format: cell-based
T19 construct: Millipore

GnRH = biological target: T20, GnRH (Homo sapiens, UniProt P30968); test: as above; format: cell-based
T20 construct: purchased Millipore

5-HT2C = biological target: T21, 5-HT2C (Homo sapiens, UniProt P28335); test: as above; format: cell-based
T21 construct: purchased Millipore

[1] = system: mutated forms of all three AKT isoforms containing inactive pleckstrin homology (PH) domains; test: Biochemical kinase assay, PH-domain mutants
[2] = read-out: ANTAGONIST mean % inhibition
[3] = read-out: AGONIST mean % increase in activity

T1 sequence (P31391 whole entry, species assumed): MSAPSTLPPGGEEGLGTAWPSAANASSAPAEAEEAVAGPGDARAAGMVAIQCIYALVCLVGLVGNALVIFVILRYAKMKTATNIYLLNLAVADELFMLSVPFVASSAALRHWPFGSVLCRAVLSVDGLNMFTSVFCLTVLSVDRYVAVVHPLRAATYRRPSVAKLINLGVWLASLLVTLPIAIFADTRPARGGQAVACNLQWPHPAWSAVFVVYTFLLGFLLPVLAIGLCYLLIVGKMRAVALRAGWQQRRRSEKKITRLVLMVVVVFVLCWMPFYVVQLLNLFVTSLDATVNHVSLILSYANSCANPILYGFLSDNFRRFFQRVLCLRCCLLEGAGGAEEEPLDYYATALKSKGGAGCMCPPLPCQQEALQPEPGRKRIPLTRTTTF

CCN1C(=O)COc2nc(-c3ccc(C4(N)CC(O)C4)cc3)c(-c3ccccc3)cc21.O=C(O)C(O)C(O)C(=O)O [VAD044, 6-(4-(1-amino-3-hydroxycyclobutyl)phenyl)-1-ethyl-7-phenyl-1H-pyrido[2,3-b][1,4]oxazin-2(3H)-one L-tartrate]
inhibition at 10 µM (HCN4): < 25%
activation at 10 µM (SST4; SST4, 10 μM, read-out: AGONIST mean % increase in activity): -0.8%
inhibition at 10 µM (SST4; [2]): 16.5%
activation at 10 µM (NMU1; NMU1, 10 μM, read-out: AGONIST mean % increase in activity): -3.1%
inhibition at 10 µM (NMU1; [2]): 5.5%
activation at 10 µM (ADRB1; ADRB1, 10 μM, read-out: AGONIST mean % increase in activity): -0.1%
inhibition at 10 µM (ADRB1; [2]): 4.2%
activation at 10 µM (ADRA1D (DELTA2-79); ADRA1D (DELTA2-79), 10 μM, read-out: AGONIST mean % increase in activity): -0.1%
inhibition at 10 µM (ADRA1D (DELTA2-79); [2]): 7%
inhibition at 10 µM (Kir2.1): < 25%
activation at 10 µM (ETB; ETB, 10 μM, read-out: AGONIST mean % increase in activity): -1.1%
inhibition at 10 µM (ETB; [2]): 2.9%
activation at 10 µM (H2; H2, 10 μM, read-out: AGONIST mean % increase in activity): -0.2%
inhibition at 10 µM (H2; [2]): -1.8%
inhibition at 10 µM (KChIP2 (Homo sapiens)): < 25%
activation at 10 µM (CCK2; CCK2, 10 μM, read-out: AGONIST mean % increase in activity): -0.2%
inhibition at 10 µM (CCK2; [2]): 8.3%
activation at 10 µM (BDKR2; BDKR2, 10 μM, read-out: AGONIST mean % increase in activity): -0.4%
inhibition at 10 µM (BDKR2; [2]): 14.6%
activation at 10 µM (VPAC2; VPAC2, 10 μM, read-out: AGONIST mean % increase in activity): 0%
inhibition at 10 µM (VPAC2; [2]): 6.2%
activation at 10 µM (GAL1; GAL1, 10 μM, read-out: AGONIST mean % increase in activity): 0.3%
inhibition at 10 µM (GAL1; [2]): 3.4%
minimal effective dose in vivo (tumor xenograft): 30 mg/kg
inhibition at 10 µM (OPRM1; OPRM1, read-out: ANTAGONIST mean % inhibition): 2.4%
activation at 10 µM (OPRM1; OPRM1, 10 μM, read-out: AGONIST mean % increase in activity): -2%
activation at 10 µM (5-HT1A; [3]): 2.1%
inhibition at 10 µM (5-HT1A; [2]): 30.6%
inhibition at 10 µM (AKT3): 72%
activation at 10 µM (OPRD1; OPRD1, 10 μM, read-out: AGONIST mean % increase in activity): -0.9%
inhibition at 10 µM (OPRD1; [2]): 2.8%
activation at 10 µM (S1P3; S1P3, 10 μM, read-out: AGONIST mean % increase in activity): -0.4%
inhibition at 10 µM (S1P3; [2]): -0.6%
activation at 10 µM (CRF1; CRF1, 10 μM, read-out: AGONIST mean % increase in activity): 0%
inhibition at 10 µM (CRF1; [2]): 2.3%
activation at 10 µM (AT1; AT1, 10 μM, read-out: AGONIST mean % increase in activity): -0.1%
inhibition at 10 µM (AT1; [2]): 5.4%
activation at 10 µM (FP; FP, 10 μM, read-out: AGONIST mean % increase in activity): -0.7%
inhibition at 10 µM (FP; [2]): 13.6%
activation at 10 µM (LPA3; LPA3, 10 μM, read-out: AGONIST mean % increase in activity): -0.7%
inhibition at 10 µM (LPA3; [2]): -0.2%
activation at 10 µM (TP; TP, 10 μM, read-out: AGONIST mean % increase in activity): -0.5%
inhibition at 10 µM (TP; [2]): 0%
activation at 10 µM (GnRH; GnRH, 10 μM, read-out: AGONIST mean % increase in activity): -0.6%
inhibition at 10 µM (GnRH; [2]): 4%
activation at 10 µM (5-HT2C; [3]): 0.8%
inhibition at 10 µM (5-HT2C; [2]): 21.9%
inhibition of mutated AKT forms [1]: not inhibited
